Data on 31 molecules can be found in patent US20180179210A1, “Inhibitors of the TEC Kinase Enzyme Family” (Pharmascience Inc., priority 2015, published 2018).

Molecules are shown by their SMILES.

Assay [1] has as its target T1, human BTK kinase (hBTK) (Homo sapiens, UniProt Q06187).
T1 construct: purchased Eurofins Pharma Discovery Services UK Limited (contract assay, Kinase Profiler)
Nature of the assay: BTK kinase inhibition assay (Kinase Profiler radiometric protein kinase assay, Eurofins). The format is biochemical. The note with it: radiometric [γ-33P-ATP] assay, 40 minutes at room temperature, 250 μM substrate. As to the method: In vitro potency of selected compound was defined against human BTK kinase (hBTK) using Kinase Profiler radiometric protein kinase assays performed at Eurofins Pharma Discovery Services UK Limited.
hBTK kinase is diluted in buffer and all compounds were prepared to 50× final assay concentration in 100% DMSO. This working stock of the compound was added to the assay well as the first component in the reaction, followed by the remaining components as detailed in the assay protocol listed above. The reaction was initiated by the addition of the MgATP mix. The kinase reaction was performed at room temperature for 40 minutes in presence of 250 μM substrate, 10 mM MgAcetate, [γ-33P-ATP] (specific activity approx. 500 cpm/pmol, concentration as required) and variable test article concentrations. The ATP concentrations in the assays were with 15 μM of the apparent. The reaction was stopped by the addition of 3% phosphoric acid solution. 10 μL of the reaction is then spotted onto a P30 filtermat and washed three times for 5 minutes in 75 mM phosphoric acid and once in methanol prior to drying and scintillation counting. In addition positive control wells contain all components of the reaction, except the compound of interest; however, DMSO (at a final concentration of 2%) were included in these wells to control for solvent effects as well as blank wells contain all components of the reaction, with a reference inhibitor replacing the compound of interest. This abolishes kinase activity and establishes the base-line (0% kinase activity remaining).

Assay [2] has as its system Splenocytes. Nature of the assay: Splenic cell proliferation assay (anti-IgM stimulated). The format is cell-based. The note with it: Splenocyte; CD1 mouse splenocytes, 1 h pre-treatment, 2.5 ug/ml anti-IgM F(ab')2 for 72 h, Cell Titer-Glo; read-out: EC50 (inhibition of splenic cell proliferation). The procedure: Proliferation of splenocytes in response to anti-IgM can be blocked by inhibition of Btk.
Splenocytes were obtained from 6 week old male CD1 mice (Charles River Laboratories Inc.). Mouse spleens were manually disrupted in PBS and filtered using a 70 um cell strainer followed by ammonium chloride red blood cell lysis. Cells were washed, resuspended in Splenocyte Medium (HyClone RPMI supplemented with 10% heat-inactivated FBS, 0.5× non-essential amino acids, 10 mM HEPES, 50 uM beta mercaptoethanol) and incubated at 37° C., 5% CO2 for 2 h to remove adherent cells. Suspension cells were seeded in 96 well plates at 50,000 cells per well and incubated at 37° C., 5% CO2 for 1 h. Splenocytes were pre-treated in triplicate with 10,000 nM curves of Formula 1 compounds for 1 h, followed by stimulation of cell proliferation with 2.5 ug/ml anti-IgM F(ab′)2 (Jackson ImmunoResearch) for 72 h. Cell proliferation was measured by Cell Titer-Glo Luminescent Assay (Promega). EC50 values (50% proliferation in the presence of compound as compared to vehicle treated controls) were calculated from dose response compound curves using GraphPad Prism Software EC50 values are reported in Table 3: […]

Assay [3] relates to TMD-8 human activated B cell diffuse large B cell lymphoma cells. Nature of the assay: TMD-8 survival assay. The format is cell-based. The note with it: TMD8, TMD-8 cells, 72 h treatment, Cell Titer-Glo. As to the method: BTK inhibitors affect the survival of B-cell lymphomas. TMD-8 human activated B cell diffuse large B cell lymphoma cells were seeded in 96-well plates at a density of 20,000 cells/well in HyClone RPMI supplemented with 10% FBS (Fisher)/1% Penicillin/Streptomycin (HyClone) and incubated at 37° C., 5% CO2. Cells were treated in triplicate with 1,000 nM or 100 nM curves of compounds for 72 h. Cell survival was measured by Cell Titer-Glo Luminescent Assay (Promega). EC50 values (50% proliferation in the presence of compound as compared to vehicle treated controls) were calculated from dose response compound curves using GraphPad Prism Software.

T1 sequence (Q06187 whole entry): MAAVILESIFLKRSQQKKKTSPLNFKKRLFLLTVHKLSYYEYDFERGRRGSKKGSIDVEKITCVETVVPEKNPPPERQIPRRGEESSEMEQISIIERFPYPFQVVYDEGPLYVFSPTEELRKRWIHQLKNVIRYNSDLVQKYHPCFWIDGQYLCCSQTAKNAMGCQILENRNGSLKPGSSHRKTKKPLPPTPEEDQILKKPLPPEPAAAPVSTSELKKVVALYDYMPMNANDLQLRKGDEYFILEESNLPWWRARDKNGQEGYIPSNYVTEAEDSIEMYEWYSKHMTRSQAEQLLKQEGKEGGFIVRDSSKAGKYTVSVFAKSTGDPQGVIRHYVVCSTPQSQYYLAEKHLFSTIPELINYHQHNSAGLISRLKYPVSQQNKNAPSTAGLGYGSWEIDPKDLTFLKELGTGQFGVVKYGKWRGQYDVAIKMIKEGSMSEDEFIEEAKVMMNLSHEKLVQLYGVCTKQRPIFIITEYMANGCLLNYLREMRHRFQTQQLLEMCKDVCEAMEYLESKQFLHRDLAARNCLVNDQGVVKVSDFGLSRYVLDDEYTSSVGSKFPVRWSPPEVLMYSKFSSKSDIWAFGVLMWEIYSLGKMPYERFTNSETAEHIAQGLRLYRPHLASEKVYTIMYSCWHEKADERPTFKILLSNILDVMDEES

In turn, `CC#CC(=O)N[C@H]1CC[C@@H](n2nc(-c3ccc(Oc4cc(F)cc(OCc5cnc(C)nc5)c4)cc3)c3c(N)ncnc32)CC1` [Compound 30] showed an IC50 in assay [1] of 9 nM. In addition, the values for the EC50 in assay [2] and in assay [3] were 1 nM and 5.1 nM, respectively.
In the same order, the values of `Cc1ncc(COc2cc(F)cc(Oc3ccc(-c4nn(C[C@H]5CCCN5C(=O)C5=CCCC5)c5ncnc(N)c45)cc3)c2)cn1` [Compound 2] are 119 nM, more than 100 nM and more than 100 nM.
As to `C=CC(=O)N1CC[C@@H](n2nc(-c3ccc(Oc4cc(F)cc(OCc5cnc(C)nc5)c4)cc3)c3c(N)ncnc32)C1` [Compound 22], the concentration for half-maximal inhibition (IC50) in assay [1] stood at 6 nM. The EC50 was determined as 2.7 nM in assay [2] and 13.4 nM in assay [3].
`CC#CC(=O)N1CCC[C@@H]1Cn1nc(-c2ccc(Oc3cc(F)cc(OCc4cnc(C)nc4)c3)cc2)c2c(N)ncnc21` [Compound 5] yielded an IC50 in assay [1] of 126 nM. The EC50 in assay [2] is 7.8 nM; in assay [3] it was 48.8 nM.
For `C=CS(=O)(=O)N1CC[C@@H](n2nc(-c3ccc(Oc4cc(F)cc(OCc5cnc(C)nc5)c4)cc3)c3c(N)ncnc32)C1` [Compound 19], half-maximal inhibition in assay [1] (IC50) required 7 nM. In addition, the values for the EC50 in assay [2] and in assay [3] were 13.4 nM and 53.3 nM, respectively.
Molecule `C=C(F)C(=O)N1CC[C@@H](n2nc(-c3ccc(Oc4cc(F)cc(OCc5cnc(C)nc5)c4)cc3)c3c(N)ncnc32)C1` [Compound 18] registered an IC50 in assay [1] of 14 nM. The EC50 in assay [2] amounted to 5.8 nM; in assay [3], 14.4 nM.
Take `C/C=C/C(=O)N1CCC[C@@H]1Cn1nc(-c2ccc(Oc3cc(F)cc(OCc4cnc(C)nc4)c3)cc2)c2c(N)ncnc21` [Compound 3]: the IC50 in assay [1] stood at 129 nM. The values for the EC50 in assay [2] and in assay [3] were 12.8 nM and 45.3 nM, respectively.
`C=CC(=O)N[C@H]1CC[C@@H](n2nc(-c3ccc(Oc4cc(F)cc(OCc5cnc(C)nc5)c4)cc3)c3c(N)ncnc32)CC1` [Compound 29] displayed an IC50 in assay [1] of 8 nM. Also, the EC50 is 1 nM in assay [2] and 6.6 nM in assay [3].
In the same order, the values of `C=C(C)C(=O)N1CCC[C@@H]1Cn1nc(-c2ccc(Oc3cc(F)cc(OCc4cnc(C)nc4)c3)cc2)c2c(N)ncnc21` [Compound 4] are 125 nM, more than 100 nM and more than 100 nM.
`Cc1ncc(COc2cc(F)cc(Oc3ccc(-c4nn([C@@H]5CCCN(C(=O)/C=C/CN(C)C)C5)c5ncnc(N)c45)cc3)c2)cn1` [Compound 16] gave an IC50 in assay [1] of 7 nM. Besides, the EC50 in assay [2] stood at 4.1 nM; in assay [3], 12.1 nM.
`CC#CC(=O)N(C)[C@H]1C[C@@H](n2nc(-c3ccc(Oc4cc(F)cc(OCc5cnc(C)nc5)c4)cc3)c3c(N)ncnc32)C1` [Compound 32] had a half-inhibitory concentration (IC50) in assay [1] of 8 nM. Also, the EC50 came out at 1.5 nM in assay [2] and 8.5 nM in assay [3].
As to `C=C(C)C(=O)N1CCC[C@@H](n2nc(-c3ccc(Oc4cc(F)cc(OCc5cnc(C)nc5)c4)cc3)c3c(N)ncnc32)C1` [Compound 7], the IC50 in assay [1] was 16 nM. Moreover, the EC50 in assay [2] was 48.7 nM; in assay [3] it was more than 100 nM.
On to `Cc1ncc(COc2cc(F)cc(Oc3ccc(-c4nn(C5CCN(C#N)CC5)c5ncnc(N)c45)cc3)c2)cn1` [Compound 33], for which the values for the EC50 in assay [2] and in assay [3] were 47.3 nM and more than 100 nM, respectively.
`CC#CC(=O)N1CCC[C@@H](n2nc(-c3ccc(Oc4cc(F)cc(OCc5cnc(C)nc5)c4)cc3)c3c(N)ncnc32)C1` [Compound 11] came in with an IC50 in assay [1] of 10 nM. The EC50 in assay [2] came to 1.5 nM; in assay [3], 13.1 nM.
For `C=CC(=O)N1CCC[C@@H]1Cn1nc(-c2ccc(Oc3cc(F)cc(OCc4cnc(C)nc4)c3)cc2)c2c(N)ncnc21` [Compound 14], the IC50 in assay [1] worked out at 25 nM. The values for the EC50 in assay [2] and in assay [3] were 2.5 nM and 13.8 nM, respectively.
Turning to `C=CC(=O)N1CCC(n2nc(-c3ccc(Oc4cc(F)cc(OCc5cnc(C)nc5)c4)cc3)c3c(N)ncnc32)CC1` [Compound 25], the IC50 in assay [1] amounted to 17 nM. Also, the EC50 in assay [2] amounted to 4.3 nM; in assay [3], 19.8 nM.
In the case of `CC#CC(=O)N[C@H]1C[C@@H](n2nc(-c3ccc(Oc4cc(F)cc(OCc5cnc(C)nc5)c4)cc3)c3c(N)ncnc32)C1` [Compound 28], 13 nM corresponded to half-maximal inhibition in assay [1] (IC50). Further, the EC50 was found to be 1.1 nM in assay [2] and 8.4 nM in assay [3].
In assay [1], `CC#CC(=O)N1CCC(n2nc(-c3ccc(Oc4cc(F)cc(OCc5cnc(C)nc5)c4)cc3)c3c(N)ncnc32)CC1` [Compound 26] registered an IC50 of 24 nM. The EC50 was 4.6 nM in assay [2] and 18.1 nM in assay [3].
In assay [1], `Cc1ncc(COc2cc(F)cc(Oc3ccc(-c4nn(C[C@H]5CCCN5C#N)c5ncnc(N)c45)cc3)c2)cn1` [Compound 1] gave a 50% inhibitory concentration (IC50) of 76 nM. Moreover, the EC50 in assay [2] was 12.2 nM; in assay [3] it was 34.7 nM.
In the same order, the values of `C=CC(=O)N(C)[C@H]1C[C@@H](n2nc(-c3ccc(Oc4cc(F)cc(OCc5cnc(C)nc5)c4)cc3)c3c(N)ncnc32)C1` [Compound 31] are 10 nM, 1.4 nM and 8.9 nM.
Regarding `C=C(F)C(=O)N1CCC[C@@H](n2nc(-c3ccc(Oc4cc(F)cc(OCc5cnc(C)nc5)c4)cc3)c3c(N)ncnc32)C1` [Compound 20], half-maximal inhibition in assay [1] (IC50) was put at 6 nM. Further, the EC50 was 2 nM in assay [2] and 8.6 nM in assay [3].
In the same order, the values of `C=CS(=O)(=O)N1CCC[C@@H](n2nc(-c3ccc(Oc4cc(F)cc(OCc5cnc(C)nc5)c4)cc3)c3c(N)ncnc32)C1` [Compound 21] are 13 nM, 32.9 nM and 64.5 nM.
In turn, `CC#CC(=O)N1CC[C@@H](n2nc(-c3ccc(Oc4cc(F)cc(OCc5cnc(C)nc5)c4)cc3)c3c(N)ncnc32)C1` [Compound 17] came in with a 50% inhibitory concentration (IC50) in assay [1] of 19 nM. Also, the EC50 in assay [2] came out at 6.9 nM; in assay [3] it was 14.5 nM.
Consider `C=CC(=O)N1CC(Cn2nc(-c3ccc(Oc4cc(F)cc(OCc5cnc(C)nc5)c4)cc3)c3c(N)ncnc32)C1` [Compound 23], for which, in assay [1], the IC50 was found to be 9 nM. Besides, the EC50 turned out to be 4.9 nM in assay [2] and 13.9 nM in assay [3].
Consider `C=C(F)C(=O)N1CCC[C@@H]1Cn1nc(-c2ccc(Oc3cc(F)cc(OCc4cnc(C)nc4)c3)cc2)c2c(N)ncnc21` [Compound 6], for which the IC50 in assay [1] was found to be 55 nM. Further, the EC50 turned out to be 11.5 nM in assay [2] and 36.1 nM in assay [3].
`C#CC(=O)N1CCC[C@@H]1Cn1nc(-c2ccc(Oc3cc(F)cc(OCc4cnc(C)nc4)c3)cc2)c2c(N)ncnc21` [Compound 13] had an IC50 in assay [1] of 35 nM. Besides, the results for the EC50 in assay [2] and in assay [3] were 48.7 nM and 79.3 nM, respectively.
In turn, `CC#CC(=O)N1CC(Cn2nc(-c3ccc(Oc4cc(F)cc(OCc5cnc(C)nc5)c4)cc3)c3c(N)ncnc32)C1` [Compound 24] had an IC50 in assay [1] of 26 nM. For the same molecule, the EC50 in assay [2] was determined as 10.8 nM; in assay [3], 20.6 nM.
Regarding `Cc1ncc(COc2cc(F)cc(Oc3ccc(-c4nn([C@@H]5CCCN(C#N)C5)c5ncnc(N)c45)cc3)c2)cn1` [Compound 8], the IC50 in assay [1] came out at 11 nM. Besides, the figures for the EC50 in assay [2] and in assay [3] were 4.6 nM and 13.5 nM, respectively.
Consider `C=CC(=O)N1CCC[C@@H](n2nc(-c3ccc(Oc4cc(F)cc(OCc5cnc(C)nc5)c4)cc3)c3c(N)ncnc32)C1` [Compound 12], for which the concentration for half-maximal inhibition (IC50) in assay [1] was 6 nM. Further, the results for the EC50 in assay [2] and in assay [3] were 3.1 nM and 16.5 nM, respectively.
As for `C=CC(=O)N1CC2(CC(n3nc(-c4ccc(Oc5cc(F)cc(OCc6cnc(C)nc6)c5)cc4)c4c(N)ncnc43)C2)C1` [Compound 34], in assay [2], the EC50 was determined as 1.5 nM.
Regarding `C=C(F)C(=O)N[C@H]1C[C@@H](n2nc(-c3ccc(Oc4cc(F)cc(OCc5cnc(C)nc5)c4)cc3)c3c(N)ncnc32)C1` [Compound 35], in assay [2], the EC50 was 1 nM.
